Here are results for one compound from patent US9067894B1, “Compound, composition, and method of activating GIRK potassium channel and use of same for treating conditions of interest” (Vanderbilt University, priority 2013, dated 2015).

For one test, the target named is T1, Endothelin ETB (Homo sapiens, UniProt P24530).
T1 construct: Ricerca
Description: Radioligand displacement (Ricerca). Format: binding. A general note: In a radioligand displacement assay an active substance lowers the binding of a labelled ligand.

The target of another test is T2, Estrogen ERα (Homo sapiens, UniProt P03372).
T2 construct: Ricerca
Description: Radioligand displacement (Ricerca). Format: binding.

For the next test, the target named is T3, Muscarinic M1 (Homo sapiens, UniProt P11229).
T3 construct: Ricerca (contract laboratory that ran the panel)
T3 sequence (P11229 whole entry): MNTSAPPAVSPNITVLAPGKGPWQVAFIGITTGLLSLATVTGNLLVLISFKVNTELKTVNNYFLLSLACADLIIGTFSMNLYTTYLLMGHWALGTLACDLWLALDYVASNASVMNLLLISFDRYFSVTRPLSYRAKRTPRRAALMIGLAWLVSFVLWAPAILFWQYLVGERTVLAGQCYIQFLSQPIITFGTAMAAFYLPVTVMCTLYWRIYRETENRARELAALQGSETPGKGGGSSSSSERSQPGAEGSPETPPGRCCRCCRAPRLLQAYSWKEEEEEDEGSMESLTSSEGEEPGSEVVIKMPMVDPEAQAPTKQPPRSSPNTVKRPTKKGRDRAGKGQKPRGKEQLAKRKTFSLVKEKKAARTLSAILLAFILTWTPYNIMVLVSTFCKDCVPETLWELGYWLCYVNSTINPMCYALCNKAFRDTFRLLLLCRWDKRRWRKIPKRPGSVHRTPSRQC
As to the kind of experiment: Radioligand displacement (Ricerca). The test is classed as binding.

The next test addresses T4, Transporter, GABA (Rattus norvegicus, UniProt P23978).
T4 construct: Ricerca (contract panel)
As to the kind of experiment: Radioligand displacement (Ricerca). The test is classed as binding.

Another test deals with T5, Prostanoid EP4 (Homo sapiens, UniProt P35408).
T5 construct: Ricerca (contract laboratory that ran the panel)
Description: Radioligand displacement (Ricerca). Format: binding.

The next test deals with Purinergic P2Y. As to the kind of experiment: Radioligand displacement (Ricerca). The test is classed as binding, rat. Particulars: 10 μM.
A further test deals with T6, EGF (Homo sapiens, UniProt P00533).
T6 construct: Ricerca
Description: Radioligand displacement (Ricerca). Format: binding.

The target in a further test is T7, Dopamine D3 (Homo sapiens, UniProt P35462).
T7 construct: Ricerca
Description: Radioligand displacement (Ricerca). Format: binding.

The test system of the next test is Imidazoline, I2. As to the kind of experiment: Radioligand displacement (Ricerca). Particulars: 10 μM. The test is classed as binding, rat.
The test system of test [1] is L-Type Ca channel (benzothiazepine). Description: Radioligand displacement (Ricerca). Format: binding, rat. Particulars: 10 μM.
A further test deals with T8, Sigma σl (Homo sapiens, UniProt Q99720).
T8 construct: Ricerca (contract panel)
T8 sequence (Q99720 whole entry): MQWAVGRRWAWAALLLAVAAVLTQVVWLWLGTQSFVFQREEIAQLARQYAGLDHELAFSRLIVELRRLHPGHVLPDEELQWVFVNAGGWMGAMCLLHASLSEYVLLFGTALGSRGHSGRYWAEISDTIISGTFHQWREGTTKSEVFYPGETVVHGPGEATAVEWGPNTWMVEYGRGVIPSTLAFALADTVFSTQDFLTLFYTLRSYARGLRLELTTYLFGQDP
As to the kind of experiment: Radioligand displacement (Ricerca). The test is classed as binding.

In a further test the target is T9, Bradykinin B2 (Homo sapiens, UniProt P30411).
T9 construct: Ricerca
T9 sequence (P30411 whole entry): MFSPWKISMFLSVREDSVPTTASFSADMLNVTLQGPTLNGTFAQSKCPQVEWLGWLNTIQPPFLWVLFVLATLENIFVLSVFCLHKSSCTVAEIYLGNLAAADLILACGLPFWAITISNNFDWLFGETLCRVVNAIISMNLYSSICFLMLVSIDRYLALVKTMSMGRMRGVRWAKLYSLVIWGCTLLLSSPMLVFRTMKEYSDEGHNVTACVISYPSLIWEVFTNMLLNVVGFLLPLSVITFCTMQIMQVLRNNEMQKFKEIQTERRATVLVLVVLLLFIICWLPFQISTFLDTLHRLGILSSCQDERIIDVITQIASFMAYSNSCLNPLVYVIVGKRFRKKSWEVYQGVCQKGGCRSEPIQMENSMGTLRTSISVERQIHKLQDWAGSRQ
As to the kind of experiment: Radioligand displacement (Ricerca). The test is classed as binding.

The target of test [2] is T10, GABAA receptors (α1, β2, γ2 subunit combination) (Homo sapiens, UniProt P14867+P18507+P47870).
T10 construct: expressed in transfected cells; host or cells: HEK-293 (transient)
T10 sequence (P14867 28-456): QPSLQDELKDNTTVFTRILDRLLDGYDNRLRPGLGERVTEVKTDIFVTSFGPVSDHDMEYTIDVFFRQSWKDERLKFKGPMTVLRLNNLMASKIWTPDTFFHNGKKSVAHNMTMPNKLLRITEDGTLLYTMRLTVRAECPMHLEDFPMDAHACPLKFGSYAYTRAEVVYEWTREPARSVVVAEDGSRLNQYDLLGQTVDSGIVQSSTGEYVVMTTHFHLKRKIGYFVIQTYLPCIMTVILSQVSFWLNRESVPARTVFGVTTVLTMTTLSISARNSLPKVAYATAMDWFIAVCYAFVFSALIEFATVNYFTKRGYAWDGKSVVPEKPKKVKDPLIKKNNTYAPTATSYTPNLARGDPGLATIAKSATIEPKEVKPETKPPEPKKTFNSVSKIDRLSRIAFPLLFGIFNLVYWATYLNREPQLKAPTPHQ
T10 sequence (P47870 25-512 limits assumed): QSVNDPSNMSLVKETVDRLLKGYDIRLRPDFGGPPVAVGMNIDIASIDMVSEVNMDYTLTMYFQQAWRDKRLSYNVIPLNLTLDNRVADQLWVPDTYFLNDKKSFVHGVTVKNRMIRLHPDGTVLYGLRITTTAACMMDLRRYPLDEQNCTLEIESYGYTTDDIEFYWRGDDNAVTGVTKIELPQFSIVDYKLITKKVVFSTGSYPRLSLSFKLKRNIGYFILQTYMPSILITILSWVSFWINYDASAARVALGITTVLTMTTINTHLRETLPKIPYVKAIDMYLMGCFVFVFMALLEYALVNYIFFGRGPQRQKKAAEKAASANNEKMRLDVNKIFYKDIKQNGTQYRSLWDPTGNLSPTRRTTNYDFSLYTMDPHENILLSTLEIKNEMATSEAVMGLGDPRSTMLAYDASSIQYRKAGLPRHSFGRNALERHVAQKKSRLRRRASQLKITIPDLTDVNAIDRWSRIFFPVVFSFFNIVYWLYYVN
T10 sequence (P18507 40-475): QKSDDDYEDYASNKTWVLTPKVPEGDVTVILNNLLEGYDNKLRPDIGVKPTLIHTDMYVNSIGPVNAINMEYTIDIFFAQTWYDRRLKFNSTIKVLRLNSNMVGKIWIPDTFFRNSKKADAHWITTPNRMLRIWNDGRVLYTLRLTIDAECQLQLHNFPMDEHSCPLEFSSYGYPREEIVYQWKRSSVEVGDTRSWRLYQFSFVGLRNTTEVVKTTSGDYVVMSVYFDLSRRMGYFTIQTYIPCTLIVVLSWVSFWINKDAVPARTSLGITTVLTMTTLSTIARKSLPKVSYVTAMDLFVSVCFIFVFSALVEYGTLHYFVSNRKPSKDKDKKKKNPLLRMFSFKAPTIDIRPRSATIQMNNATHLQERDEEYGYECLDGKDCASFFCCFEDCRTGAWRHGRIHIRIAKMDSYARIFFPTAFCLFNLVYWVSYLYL
As to the kind of experiment: Whole-cell voltage-clamp on GABAA receptors transiently transfected in HEK-293 cells. The test is classed as cell-based. The following applies: activation or potentiation of GABA-evoked currents. As to the method:
A single-cell suspension of HEK-293 cells stably transfected with the appropriate ion channels were plated into TC-treated 35 mm polystyrene dishes at ˜15% confluence and incubated overnight in a 5% CO2 cell culture incubator at 37° C. Whole-cell patch-clamp recordings were performed 24-72 h after plating. Borosilicate glass electrodes ([…] resistance) were filled with Intracellular Solution (130 mM KCl, 20 mM NaCl, 5 mM EGTA, 5.46 mM MgCl2, and 10 mM HEPES, pH 7.4). Whole cell currents were recorded in 20K extracellular solution at −70 mV using a Pico 1 amplifier (Tecella, Foothill Ranch, Calif.) controlled by WINWCP 4.X (University of Strathclyde, Glasgow, Scotland, UK). Signals were compensated for electrode capacitance, cellular capacitance and series resistance. Signals were filtered at 1 kHz, and digitized at 5 kHz. Solutions were applied to the cell with a Valvelink 8.2 (Automate Scientific, Berkeley, Calif.) rapid, valve-controlled perfusion system with in-house-made local superfusion manifold. […] One day after transfection, cells were plate into 35 mm polystyrene dishes, incubated and recorded as described above. […]
Voltage-clamp data were analyzed by converting current amplitudes to current density by dividing by each cell's membrane capacitance estimated from capacitance compensation. […]

Another test addresses T11, Adenosine A3 (Homo sapiens, UniProt P0DMS8).
T11 construct: Ricerca (contract assay)
Description: Radioligand displacement (Ricerca). The test is classed as binding.

The target in a further test is T12, Adrenergic α1B (Rattus norvegicus, UniProt P15823).
T12 construct: Ricerca (contract assay)
T12 sequence (P15823 whole entry): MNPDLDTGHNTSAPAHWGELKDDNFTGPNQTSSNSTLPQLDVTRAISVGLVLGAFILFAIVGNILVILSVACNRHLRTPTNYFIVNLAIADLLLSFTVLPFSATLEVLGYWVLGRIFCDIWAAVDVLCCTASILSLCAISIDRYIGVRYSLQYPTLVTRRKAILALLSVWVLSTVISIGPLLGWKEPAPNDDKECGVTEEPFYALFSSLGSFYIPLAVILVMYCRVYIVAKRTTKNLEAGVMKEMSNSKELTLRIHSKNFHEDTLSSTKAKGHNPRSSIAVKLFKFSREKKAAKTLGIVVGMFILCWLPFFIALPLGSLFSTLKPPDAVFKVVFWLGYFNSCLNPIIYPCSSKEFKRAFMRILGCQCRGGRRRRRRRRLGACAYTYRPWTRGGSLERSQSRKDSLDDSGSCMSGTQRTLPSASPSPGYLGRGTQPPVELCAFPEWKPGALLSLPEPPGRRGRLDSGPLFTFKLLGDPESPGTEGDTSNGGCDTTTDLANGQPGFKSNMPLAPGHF
Description: Radioligand displacement (Ricerca). Format: binding.

For the next test, the target named is T13, Cannabinoid CB1 (Homo sapiens, UniProt P21554).
T13 construct: Ricerca
Description: Radioligand displacement (Ricerca). Format: binding.

A short description of test [3]: Maximal electroshock (MES) model of epilepsy. The test is classed as in vivo, mouse. Particulars: mice, i.p.; VU0456810 60 mg/kg, sodium valproate 150 mg/kg; vs vehicle. As to the method: MES stimulation was applied, 30 minutes after injection, through transauricular (ear-clip) electrodes from an electroshock apparatus, HSE Shock Stimulator Type 221, (Harvard Apparatus, Holliston, Mass.) using the following parameters: 100-mA fixed current, a 50-60-Hz pulse frequency, a 0.6-ms pulse width and a 0.3-s stimulus duration. Animals were restrained by hand when applying the electrodes and released at the moment of stimulation to permit observation of the seizure throughout its entire course. Upon completion of the electrical stimulus, the amount of time until death was recorded. […] In this modified MES test, the electrical stimulus that was applied was sufficient to induce seizures and death from maximal seizure in 100% of the control mice.
In all cases, experiments were conducted in a blind manner with respect to the experimenters. Data were evaluated in Excel using one-tailed, unpaired Student's t-test, assuming populations with unequal variance.
(In general: Protection in the maximal electroshock model is a classic sign of anticonvulsant action.)

The target of another test is T14, Adrenergic α1A (Rattus norvegicus, UniProt P43140).
T14 construct: Ricerca (contract assay)
T14 sequence (P43140 whole entry): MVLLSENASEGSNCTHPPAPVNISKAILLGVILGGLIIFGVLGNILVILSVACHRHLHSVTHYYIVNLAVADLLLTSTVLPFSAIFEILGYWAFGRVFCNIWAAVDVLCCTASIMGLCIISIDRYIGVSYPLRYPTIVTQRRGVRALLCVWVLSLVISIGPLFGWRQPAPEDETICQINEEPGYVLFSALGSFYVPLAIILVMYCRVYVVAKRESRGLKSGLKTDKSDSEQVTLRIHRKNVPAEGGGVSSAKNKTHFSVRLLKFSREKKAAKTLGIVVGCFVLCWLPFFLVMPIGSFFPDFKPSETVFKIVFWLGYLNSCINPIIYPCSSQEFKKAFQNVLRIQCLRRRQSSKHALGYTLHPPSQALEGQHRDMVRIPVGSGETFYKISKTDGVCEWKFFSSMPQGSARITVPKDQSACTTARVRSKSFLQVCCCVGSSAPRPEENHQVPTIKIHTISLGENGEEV
Description: Radioligand displacement (Ricerca). The test is classed as binding.

Usually inhibition stands for the change of the read-out against control, counted positive when it falls. Broadly, the % Inhibition is the share of the control response that was lost under treatment. A lower % Inhibition goes with a weak effect.

SMILES strings stand for the structures. Entries after “also recorded” stand apart in the source; their conditions may differ.

T11 sequence (P0DMS8 whole entry): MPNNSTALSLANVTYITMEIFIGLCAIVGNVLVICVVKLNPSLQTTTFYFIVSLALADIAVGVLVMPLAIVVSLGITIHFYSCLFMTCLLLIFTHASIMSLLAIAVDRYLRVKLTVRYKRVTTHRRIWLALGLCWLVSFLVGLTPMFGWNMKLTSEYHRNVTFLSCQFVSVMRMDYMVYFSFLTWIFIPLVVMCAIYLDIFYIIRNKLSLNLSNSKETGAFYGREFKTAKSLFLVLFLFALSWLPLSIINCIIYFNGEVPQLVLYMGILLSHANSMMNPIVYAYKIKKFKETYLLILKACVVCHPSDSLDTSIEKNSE
T1 sequence (P24530 27-442): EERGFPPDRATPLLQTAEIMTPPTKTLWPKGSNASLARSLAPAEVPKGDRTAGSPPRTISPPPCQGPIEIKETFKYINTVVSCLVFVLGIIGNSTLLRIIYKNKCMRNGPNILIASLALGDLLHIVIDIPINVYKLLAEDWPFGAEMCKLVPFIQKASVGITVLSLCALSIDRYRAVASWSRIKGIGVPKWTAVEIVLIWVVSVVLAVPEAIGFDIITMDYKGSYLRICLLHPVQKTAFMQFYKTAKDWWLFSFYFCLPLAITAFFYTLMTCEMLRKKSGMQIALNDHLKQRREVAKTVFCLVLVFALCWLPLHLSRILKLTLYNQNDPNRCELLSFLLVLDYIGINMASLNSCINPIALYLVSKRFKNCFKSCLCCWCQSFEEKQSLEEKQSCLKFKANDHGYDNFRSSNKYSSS

For `Cc1cc(NC(=O)Nc2ccc(F)c(F)c2)n(-c2ccccc2)n1` [VU0456810, 1-(3,4-difluorophenyl)-3-(3-methyl-1-phenyl-1H-pyrazol-5-yl)urea], the inhibition at 10 µM is 3% on Endothelin ETB; 1% at Estrogen ERα; 0% on Muscarinic M1; 5% at Transporter, GABA; -4% on Prostanoid EP4; -2% at EGF. For the same compound, the inhibition at 10 µM on Dopamine D3 was 2%; at Sigma σl it was under 50%; at Bradykinin B2, -1%; on Adenosine A3, 8%; on Adrenergic α1B, 1%; on Cannabinoid CB1, 8%. The inhibition at 10 µM on Adrenergic α1A came out at 4%. The “% Inhibition” value stood at 4% with Purinergic P2Y; 20% with Imidazoline, I2; 1% in test [1]; 49% at Sigma σl (10 μM). In addition, the Potency entry in test [2] is “failed to show any activation or potentiation; also recorded: Inactive”. Moreover, the “latency of seizure onset” value in test [3] is given as “robust increase; also recorded: highly significant delays in seizure onset”.
